Data published in patent publication US20090143279A1 (priority 2007, published 2009).
Counter-ions that a name gives are not always drawn. Like-named read-outs stand apart in the source and are kept apart here.

Key:
[1] = system: nuOXPHOS transcripts; type: cell-based, mouse
[2] = system: mtOXPHOS transcripts; type: cell-based, mouse
[3] = system: mitochondrial membrane potential; type: cell-based, mouse
[4] = system: reactive oxygen species; type: cell-based, mouse; conditions: for ROS levels: primary screen, in words; for dose at which ROS levels decreased: retest at 20 nM to 20 μM, FIG. 6a
[5] = system: OXPHOS gene expression; type: cell-based, mouse; conditions: for OXPHOS expression: primary screen, in words; for dose at which OXPHOS expression increased: retest at 20 nM to 20 μM, FIG. 6a
[6] = system: C2C12 myotubes
[7] = system: cellular dehydrogenase activity
[8] = system: cytochrome c; type: cell-based, mouse
[9] = Table 7, C2C12 myotubes, 48 h, composite Z-score
[10] = composite Z-score vs DMSO, Conc 20 μM
[11] = composite Z-score vs mock-treated (DMSO) wells, Conc 20 μM
[12] = composite Z-score vs DMSO wells, Conc 20 μM
[13] = Table 3, differentiated C2C12 myotubes, 48 h treatment, composite Z-score vs DMSO
[14] = Table 5, C2C12 myotubes, 48 h, composite Z-score

CCCCCCCCCCCCCCCC[N+](C)(C)C.[Br-] [cetrimonium bromide, reference compound]
nucOXPHOS Z [1, 9]: −2.70
mito-OXPHOS Z [2, 9]: 1.66

CC12CCC3c4ccc(OCc5ccccc5)cc4CCC3C1C[C@@H](O)[C@@H]2O (stereo partly drawn) [estriol benzyl ether]
ΔΨm (composite Z-score vs DMSO mock-treated wells) [3]: 3.459
ROS (composite Z-score vs DMSO mock-treated wells) [4]: −0.504
GE-HTS (composite Z-score, OXPHOS gene expression) [5]: −0.114
nucOX (composite Z-score, nuclear-encoded OXPHOS expression) [1]: 0.122
mitoOX (composite Z-score, mtDNA-encoded OXPHOS expression) [2]: −0.574
Viability (composite Z-score vs DMSO mock-treated wells) [6]: 0.551
MTT (composite Z-score vs DMSO mock-treated wells) [7]: 2.975

CCOC(=O)c1c(C)cc(OC)cc1O [ethyl everninate]
ΔΨm [3, 10]: −0.860
ROS [4, 10]: 0.125
GE-HTS [5, 10]: −0.428
nucOX [1, 10]: −0.131
mitoOX [2, 10]: −0.980
cyt c [8, 10]: 0.122
MTT [7, 10]: −1.302

COC(=O)C[C@H]1C(C)(C)[C@@H](OC(C)=O)[C@@H]2CC3=C4CC(=O)O[C@@H](c5ccoc5)[C@]4(C)CC[C@@H]3[C@@]1(C)C2=O [fissinolide]
ΔΨm [3, 11]: −0.324
ROS [4, 11]: 0.475
GE-HTS [5, 11]: 0.534
nucOX [1, 11]: 0.385
mitoOX [2, 11]: 0.777
cyt c [8, 11]: −0.167
Viability [6, 11]: 0.060

CC[N+](CC)(CC)CCOc1cccc(OCC[N+](CC)(CC)CC)c1OCC[N+](CC)(CC)CC [gallamine]
ΔΨm [3, 12]: −0.882
ROS [4, 12]: 1.259
GE-HTS [5, 12]: 0.057
nucOX [1, 12]: −0.292
mitoOX [2, 12]: 0.843
cyt c [8]: 0.036
cyt c [8, 12]: −0.492
MTT [7, 12]: −1.683

CC(C)=CCC[C@]1(C)C=Cc2c(O)c3c(c(CC=C(C)C)c2O1)O[C@]12C(=C[C@@H]4CC1C(C)(C)O[C@@]2(C/C=C(/C)C(N)=O)C4=O)C3=O [gambogic acid amide, reference compound]
nucOXPHOS Z [1, 9]: −4.01
mito-OXPHOS Z [2, 9]: −2.68

CC(=O)O[C@@H]1CC2C(C)(C)[C@H](O)C=C[C@]2(C)C2CC[C@@]3(C)[C@H](c4ccoc4)OC(=O)C4OC43[C@@]21C (stereo partly drawn) [gedunol]
ΔΨm [3, 11]: 0.897
ROS [4, 11]: 0.132
GE-HTS [5, 11]: −1.545
nucOX [1, 11]: −1.561
mitoOX [2, 11]: −1.174
Viability [6, 11]: 0.438
MTT [7, 11]: −1.248

Cc1c(O)cc(O)c2c(=O)c(-c3ccc(O)cc3)coc12 [genistein, 8-methyl]
ΔΨm (composite Z-score) [3]: −0.404
ROS (composite Z-score) [4]: 1.016
GE-HTS (composite Z-score) [5]: 0.247
nucOX (composite Z-score) [1]: 0.353
mitoOX (composite Z-score) [2]: 0.023
Viability (composite Z-score) [6]: −0.071
MTT (composite Z-score) [7]: −1.035

CC(=O)O[C@@H]1CC2C(C)(C)C=CC(=O)[C@]2(C)C2CC[C@@]3(C)[C@H](c4ccoc4)OC(=O)C4OC43[C@@]21C (stereo partly drawn) [isogedunin]
ΔΨm [3, 11]: −0.489
GE-HTS [5, 11]: 0.805
nucOX [1, 11]: 0.883
mitoOX [2, 11]: 0.523
cyt c [8, 11]: 0.050
Viability [6, 11]: 0.404
MTT [7, 11]: −1.716

CON [methoxyamine]
ΔΨm [3, 12]: −0.754
ROS [4, 12]: 0.751
GE-HTS [5, 12]: −1.274
nucOX [1, 12]: −1.049
mitoOX [2, 12]: −1.494
cyt c [8, 12]: 0.749
MTT [7, 12]: −1.833

Cc1cc(C(C)(C)CC(C)(C)C)ccc1OCCOCC[N+](C)(C)Cc1ccccc1 [methylbenzethonium]
ΔΨm [3]: −4.202
ROS [4]: −3.108
GE-HTS [5]: −1.868
nucOX [1]: −2.103
mitoOX [2]: −1.043
Viability [6]: −4.580
MTT [7]: −5.614

CC[C@@]1([C@@H]2O[C@@H]([C@H]3O[C@@](O)(CO)[C@H](C)C[C@@H]3C)C[C@@H]2C)CC[C@H]([C@]2(C)CC[C@]3(C[C@H](O)[C@@H](C)[C@@H]([C@@H](C)[C@@H](OC)[C@H](C)C(=O)O)O3)O2)O1 [monensin, reference compound]
nucOXPHOS Z [1, 9]: 0.70
mito-OXPHOS Z [2, 9]: −4.13

COc1cc([C@@H]2c3cc4c(cc3[C@H](O)[C@H]3COC(=O)[C@H]23)OCO4)cc(OC)c1OC [podofilox, reference compound]
ROS Zscore [4, 13]: −1.436
ROS levels [4]: suppressing ROS levels
dose at which ROS levels decreased [4]: 2 µM
GEHTS_Zscore [5, 13]: 3.408
OXPHOS expression [5]: boost OXPHOS expression
dose at which OXPHOS expression increased [5]: 2 µM
nucOXPHOS Z [1, 9]: 2.53
mito-OXPHOS Z [2, 9]: 1.28

NCCCCN [putrescine]
ROS [4]: 0.279
GE-HTS [5]: −0.341
nucOX [1]: −0.160
mitoOX [2]: −0.684
cyt c [8]: 0.897
Viability [6]: −0.586
MTT [7]: −0.806

CC[C@]1(O)C[C@@H]2CN(CCc3c([nH]c4ccccc34)[C@@](C(=O)OC)(c3cc4c(cc3OC)N(C)[C@H]3[C@@](O)(C(=O)OC)[C@H](OC(C)=O)[C@]5(CC)C=CCN6CC[C@]43[C@@H]65)C2)C1 [vinblastine sulfate, reference compound]
ROS Zscore [4, 13]: −1.327
ROS Zscore [4, 14]: −1.327
ROS levels [4]: suppressing ROS levels
dose at which ROS levels decreased [4]: 2 µM
GEHTS_Zscore [5, 13]: 3.171
GEHTS_Zscore [5, 14]: 3.171
OXPHOS expression [5]: boost OXPHOS expression
dose at which OXPHOS expression increased [5]: 2 µM
nucOXPHOS Z [1, 9]: 2.09
mito-OXPHOS Z [2, 9]: 1.64
cyt c ([8]; composite Z-score vs mock-treated (DMSO) wells, concentration of each compound in μM): −1.078

Thimerosal [reference compound]
ΔΨm [3]: −3.315
ROS [4]: −3.880
nucOXPHOS Z [1]: −1.20
mito-OXPHOS Z [2]: 10.41
Viability [6]: −5.590
MTT [7]: −6.206
